According to patent publication US11918628B2, “Controlled-release PTH compound” (ASCENDIS PHARMA BONE DISEASES A/S, priority 2016, dated 2024):

Tests used:
[1] = tested on: patients with hypoparathyroidism; settings: cited from earlier work
rats = settings: daily injections; cited from earlier work
[2] = tested on: patients with hypoparathyroidism; settings: cited from earlier work; remark: listed apart in the source
patients = settings: 6-year follow-up; cited from earlier work
TPTx rats = assay: 28-days study in thyroparathyroidectomised (TPTx) rats with daily subcutaneous injections of conjugate 18 or PTH(1-84); type: in vivo, rat
Method: Quantitative measurements of serum calcium (sCa), urinary calcium and serum phosporous (sP) were performed on a Roche-Hitachi P800 modular biochemistry instrument.
This study was performed in order to test and compare the effect of daily subcutaneous injection of compound 18 and PTH(1-84), the current standard of care, in an animal disease model relevant for investigating treatment of hypoparathyroidism (HP). Rats subjected to thyroparathyroidectomy (TPTx) by blunt dissection are unable to produce parathyroid hormone, PTH, the major regulator of calcium homeostasis. […] 17 weeks old female SD TPTx rats (n=9/group) were dosed subcutaneously for 28 days with compound 18 ([…]; 1.2 nmol/kg/d, in 10 mM succinic acid, 46 g/L mannitol, pH 4.0), PTH(1-84) (70 μg PTH eq/kg/d; 7.3 nmol/kg/d; in 10 mM citrate, mannitol 39.0 g/L, pH 5.0) or vehicle. Additionally, one group of sham operated rats (n=9) representing normophysiological background control were also given vehicle. Serum calcium (sCa) and phosporous (sP) levels in the animals were measured pre- and post-dose on days 1, 6, 12 and 27. Moreover, bone turnover markers (P1NP and CTx) were measured and bone quality assessed by ex vivo pQCT.

| Compound | daily dose with pump delivery, lower than with the twice daily injection regimen ([1]; pump delivery versus twice daily injection) | calcium levels with pump delivery ([1]; pump delivery, over 6-months) | urinary calcium excretion with pump delivery ([1]; pump delivery) | osteosarcoma rate (rats) | urinary calcium excretion 2-8 hours after injection ([2]; 2-8 hours after injection) | urinary calcium excretion over the 24-hour period ([2]; 24-hour period after injection) | urinary phosphate excretion ([2]; after injection) | participants who achieved normal blood calcium levels on reduced doses of calcium supplements and active forms of vitamin D ([2]; pivotal trial, once-daily sc, adjunct to vitamin D and calcium) | patients who developed hypercalcemia at one or more measurements during a 24-hour period ([2]; serum calcium monitored after injection) | incidences of hypercalcemia, hypocalcemia or hypercalciuria relative to conventional therapy ([2]; treated patients) | bone mineral density (BMD) by DXA (patients) | bone turnover markers (patients) | trabecular and cortical BMD/bone in vertebrae after 28 days of treatment (TPTx rats; TPTx rats, 28 days daily sc) | trabecular BMD compared to both control groups (TPTx rats; TPTx rats, 28 days daily sc, 7.3 nmol/kg/d) | sCa ratio treated/sham-control at day 12 (TPTx rats; TPTx rats, daily sc, day 12) | effect on serum phosphorous (sP) (TPTx rats; TPTx rats, daily sc, compound 18 1.2 nmol/kg/d, PTH(1-84) 7.3 nmol/kg/d) | effect on serum calcium (sCa) (TPTx rats; TPTx rats, daily sc, compound 18 1.2 nmol/kg/d, PTH(1-84) 7.3 nmol/kg/d, versus vehicle-injected TPTx rats) | serum calcium (sCa) at day 12 (TPTx rats; female SD TPTx rats, daily sc, day 12) |
| --- | --- | --- | --- | --- | --- | --- | --- | --- | --- | --- | --- | --- | --- | --- | --- | --- | --- | --- |
| CC[C@H](C)[C@H](NC(=O)[C@H](CCC(=O)O)NC(=O)[C@H](CO)NC(=O)[C@@H](NC(=O)[C@@H](N)CO)C(C)C)C(=O)N[C@@H](CCC(N)=O)C(=O)N[C@@H](CC(C)C)C(=O)N[C@@H](CCSC)C(=O)N[C@@H](Cc1cnc[nH]1)C(=O)N[C@@H](CC(N)=O)C(=O)N[C@@H](CC(C)C)C(=O)NCC(=O)N[C@@H](CCCCN)C(=O)N[C@@H](Cc1cnc[nH]1)C(=O)N[C@@H](CC(C)C)C(=O)N[C@@H](CC(N)=O)C(=O)N[C@@H](CO)C(=O)N[C@@H](CCSC)C(=O)N[C@@H](CCC(=O)O)C(=O)N[C@@H](CCCN=C(N)N)C(=O)N[C@H](C(=O)N[C@@H](CCC(=O)O)C(=O)N[C@@H](Cc1c[nH]c2ccccc12)C(=O)N[C@@H](CC(C)C)C(=O)N[C@@H](CCCN=C(N)N)C(=O)N[C@@H](CCCCN)C(=O)N[C@@H](CCCCN)C(=O)N[C@@H](CC(C)C)C(=O)N[C@@H](CCC(N)=O)C(=O)N[C@@H](CC(=O)O)C(=O)N[C@H](C(=O)N[C@@H](Cc1cnc[nH]1)C(=O)N[C@@H](CC(N)=O)C(=O)N[C@@H](Cc1ccccc1)C(=O)O)C(C)C)C(C)C [PTH(1-34)] | 65% | normal, steady state calcium levels with minimal fluctuation | marked reduction | dose dependent increase |  |  |  |  |  |  |  |  |  |  |  |  |  |  |
| PTH(1-84): Natpara, PTH(1-84), polypeptide with the sequence of SEQ ID NO:1; the current standard of care |  |  |  | dose dependent increase | reduced | did not change | increased only during the first 8 hours | 42% | 71% | has not demonstrated an ability to reduce | increases in lumbar spine and declines in the distal ⅓ radius | remained greater than pretreatment values | anabolic effect | significant increase | 0.76 | minimal decrease | did not lead to increase in sCa | 8.1 mg/dL |
